Like-named read-outs stand apart in the source and are kept apart here.
Tests used:
Assay type in all cases: cell-based
human melanoma A2058 = assay: Anti-tumor activity, cell growth inhibition by CellTiter Blue Assay, A2058; details: read-out: IC50 A2058 (melanoma)
Procedure: (§1) Three human tumor cells were used in this investigation, and they were human H460 NSCLC, human melanoma A2058 and human […] HT1080 cell lines. Cells were originally obtained from American Type Cell Culture (ATCC) and have been used for experiments at passages below 30. All tumor cells were maintained at 37° C. in a humidified 5% CO2 atmosphere in T75 tissue culture flasks containing 25 mL of Roswell Park Memorial Institute (RPMI) 1640, with 10% fetal bovine serum (FBS) and 2 mM L-glutamine. The tumor cells were split at a ratio of 1:10 every 4-5 days by trypsinization and resuspended in fresh medium in a new flask. Cells were harvested for experiments at 70-90% confluency.
(§2) The culture media used for all cell lines in this study was Roswell Park Memorial Institute (RPMI) 1640, with 10% fetal bovine serum (FBS), 2 mM L-glutamine, 100 IU/mL penicillin and 100 μg/ml streptomycin. The test compounds used were generally prepared at a concentration higher than 20 mM and tested at 1 mM in cultured media for precipitation, 1 mM is the highest tested concentration of the test compounds.
(§3) The anti-tumor activities of the test compounds were assessed by exposing the tumor cells to various concentrations of test compounds (or vehicle) or not treated with the test compounds or vehicle. The concentration ranges of the test compounds evaluated in this study were 0-1 mM. The duration of treatment of the tumor cells was 48 hours. Subsequent to treatment with the test articles, the number of viable tumor cells was determined, and the concentrations of the test agents that induced 50% of cell growth inhibition (IC50) were derived and compared.
(§4) Cell Seeding for Experiments: To cells grown to 70-90% confluency, medium was removed and the cell monolayers were washed briefly by adding 5 mL of phosphate buffer saline (PBS) followed by aspiration. Trypsin-ethylenediaminetetraacetic acid (EDTA) (4 mL) was added to each, flask, and the flask was placed in the tissue culture incubator for 5 minutes. Serum-containing medium (10 mL) was added to halt the enzymatic reactions, and cells were disaggregated, by repeated resuspension with serological pipet. The cell-containing medium (20 μL) was added to 20 μL of 0.4% Trypan Blue solution, mixed, and 10 μL of this cell-containing mixture was placed in a chamber of a hemocytometer. The number of viable cells was determined by counting the number of viable cells (cells that excluded trypan blue) in the 4 corner squares of the hemocytometer chamber at 100× magnification. The volume of cells needed was determined by the following formula:
(§5) The number of cells targeted for the study was 4×10^3 per well in 100 μL of medium. The actual number of cells were counted and seeded in the wells of a 96 well-plate. The cells were then incubated for ˜24 hrs before they were used for testing of anti-tumor activities of the test compounds and vehicle. Cell monolayer was confluent or subconfluent for some cell lines at the day of the experiment.
(§6) Treatment with Test Compounds and Vehicle: On the day of testing, 5 μL of a specific concentration of the test compounds (or vehicle) were added to the wells. After exposure to the test articles (or vehicle) for 48 hours, the number of viable cells in the wells was determined (see next section), and the percent of cells relative to no treatment was calculated.
(§7) Determination of the Number of Viable Cells by the CellTiter Blue Assay: The number of viable cells was determined using the CellTiter Blue Assay in this study. Specifically, reagents were allowed to come to room temperature according to instructions from Protoega, Inc. (Madison, Wis.). CellTiter Blue reagent was added with the 12-channel Eppendorf pipettor, 20 μL per well. The cells were then incubated at 37° C. for 1-4 hrs in cell culture incubator. Fluorescence intensity, which is proportional to the quantity of viable cells, was read at 530/590 nm using FLUOstar optima fluorescence plate reader (BMG technologies, Germany). […]

human H460 NSCLC = assay: Anti-tumor activity, cell growth inhibition by CellTiter Blue Assay, H460; details: read-out: IC50 H460 (NSCLC)
Procedure: as §1, §2, §3, §4, §5, §6, §7

[1] = system: human adenocarcinoma HT1080; assay: Anti-tumor activity, cell growth inhibition by CellTiter Blue Assay, HT1080; details: read-out: IC50 HT1080
Procedure: as §1, §2, §3, §4, §5, §6, §7

[2] = Homo sapiens, A2058, 48 h, A2058 cells, 48 hours treatment, 0-1 mM, viable cells by CellTiter Blue
[3] = Homo sapiens, NCI-H460, 48 h, H460 cells, 48 hours treatment, 0-1 mM, viable cells by CellTiter Blue
[4] = Homo sapiens, HT-1080, 48 h, HT1080 cells, 48 hours treatment, 0-1 mM, viable cells by CellTiter Blue
[5] = A2058 cells, 48 hours treatment, 0-1 mM, viable cells by CellTiter Blue
[6] = H460 cells, 48 hours treatment, 0-1 mM, viable cells by CellTiter Blue
[7] = HT1080 cells, 48 hours treatment, 0-1 mM, viable cells by CellTiter Blue

Compound	IC50 (human melanoma A2058; [2]) [µM]	IC50 (human H460 NSCLC; [3]) [µM]	IC50 [1, 4] [µM]	also measured
O=C(O)CCCCC(CCSc1ccnc2cc(Cl)ccc12)Sc1ccnc2cc(Cl)ccc12 (stereo not drawn) [A]	183 ± 3	127 ± 11	80 ± 8	–
O=C(O)CCCCC(CCSc1ccnc2ccccc12)Sc1ccnc2ccccc12 (stereo not drawn) [F]	–	–	–	IC50 (human melanoma A2058; Homo sapiens, A2058, 48 h): 51 ± 4 µM; IC50 (human H460 NSCLC; Homo sapiens, NCI-H460, 48 h): 70 ± 13 µM; IC50 ([1]; Homo sapiens, HT-1080, 48 h): 68 ± 20 µM
CCSC(CCS)CCCCC(=O)O (stereo not drawn) [H, 6-ethylmercapto-8-mercaptooctanoic acid]	238 ± 2	282 ± 20	270 ± 4	–
O=C(O)CCCCC(CCSSCc1ccccc1)SSCc1ccccc1 (stereo not drawn) [JJ]	–	–	–	IC50 (human melanoma A2058; [5]): 206 ± 55 µM; IC50 (human H460 NSCLC; [6]): 318 ± 20 µM; IC50 [1, 7]: 133 ± 2 µM
O=C(O)CCCCC(CCSSCc1ccccc1)SSCc1ccccc1 (stereo not drawn) [KK]	–	–	–	IC50 (human melanoma A2058; [5]): 483 ± 180 µM; IC50 (human H460 NSCLC; [6]): 409 ± 69 µM; IC50 [1, 7]: 212 ± 52 µM
O=C(O)CCCCC1CCSC(c2ccncc2)S1 (stereo not drawn) [Q]	–	–	–	IC50 (human melanoma A2058; Homo sapiens, A2058, 48 h): 717 ± 11 µM
O=C(O)CCCCC(CCSCc1c(F)c(F)c(F)c(F)c1F)SCc1c(F)c(F)c(F)c(F)c1F (stereo not drawn) [X]	59 ± 4	64 ± 4	60 ± 18	–

Continued, in another order:

IC50 (human melanoma A2058; [2]) [µM]	IC50 (human H460 NSCLC; [3]) [µM]	IC50 [1, 4] [µM]	Compound	also measured
346 ± 20	449 ± 1	421 ± 53	CCC(S)(CCCCC(=O)O)CC(S)c1ccccc1 (stereo not drawn) [Compound MM, 6-ethyl-8-phenyl-6,8-bismercaptooctanoic acid]	–
125 ± 3	167 ± 42	–	O=C(O)CCCCC(CCSCCc1ccccc1)SCCc1ccccc1 (stereo not drawn) [W]	–

From US9150509B2, “Lipoic acid derivatives” (Cornerstone Pharmaceuticals, Inc., priority 2007, dated 2015)
